In brackets after ≈: the same amount, converted by molar mass. Where a name gives a salt, the structure may show the parent alone.
Assay: Solubility (Solubilités) in water and dimethyl sulfoxide
Format: physicochemical
Conditions: for solubility in dimethyl sulfoxide: diméthylsulfoxyde; for solubility: water, eau, read-out: Solubilités : Soluble dans l'eau

Row | SMILES | solubility in dimethyl sulfoxide [%] | solubility [mg/mL]
1 | Cc1cccc(COCC(O)CNC(C)C)c1 (stereo not shown) [Exemple 1, isopropylamino-3, m-tolyl méthoxy-1 propanol-2 fumarate] | 15 | 100
2 | Cc1cccc(COCC(O)CNC(C)(C)C)c1 (stereo not shown) [Exemple 2, tertiobutvlamino-3 métatol lméthoxy-1 propanol-2 maléate] | 10 | 25 (≈ 99.5 mM)
3 | COc1ccccc1COCC(O)CNC(C)C (stereo not shown) [Exemple 3, isopropylamino-3 (orthométhoxy benzyloxy) 1 propanol-2 fumarate] | 15 | 100
4 | COc1ccccc1COCC(O)CNC(C)(C)C (stereo not shown) [Exemple 4, tertiobutylamino-3 (orthométhoxy benzyloxy)-1 propanol-2 maléate] | 15 | 100 (≈ 374 mM)
5 | COc1cccc(COCC(O)CNC(C)(C)C)c1 (stereo not shown) [Exemple 5, tertiobutylamino-3 (métaméthoxybenzyloxy)-1 propanol-2 maléate] | 12 | 100 (≈ 374 mM)
6 | COc1ccc(COCC(O)CNC(C)(C)C)cc1 (stereo not shown) [Exemple 6, tertiobutylamino-3 (paraméthoxy benzyloxy)-1 propanol-2 maléate] | 20 | 100 (≈ 374 mM)
7 | CC(C)(C)NCC(O)COCc1cccc(OCc2ccccc2)c1 (stereo not shown) [Exemple 7, tertiobutylamino-3 métabenzyloxy-benzyloxy-1 propanol-2 maléate] | 20 | 2 (≈ 5.82 mM)
8 | CC(C)NCC(O)COCc1cccc2ccccc12 (stereo not drawn) [Exemple 8, isopropylamino-3 (alpha-naphtyl méthoxy)-1 propanol-2 fumarate] | 8 | 14
9 | CC(C)(C)NCC(O)COCc1cccc2ccccc12 (stereo not drawn) [Exemple 9, tertiobutylamino-3 (alpha-naphtyl méthoxy)-1 propanol-2 fumarate] | 15 | 100
10 | CC(C)NCC(O)COCCCc1ccccc1 (stereo not shown) [Exemple 10, isopropylamino-3(phényl-3 propoxy)-1 pro^panol-2 fumarate] | 12 | 100
11 | CC(C)(C)NCC(O)COCCCc1ccccc1 (stereo not shown) [Exemple 11, tertiobutylamino-3 phényl-3 propoxy)-1 propanol-2 fumarate] | 15 | 100
12 | CC(C)(C)NCC(O)COC/C=C/c1ccccc1 (stereo not shown) [Exemple 12, tertiobutylamino-3 (phényl-3 propène-2 yl-1) oxy-1 ^propanol-2 maléate] | 15 | 10 (≈ 38 mM)
13 | CC(C)(C)NCC(O)COC1Cc2ccccc2C1 (stereo not shown) [Exemple 14, tertiobutylamino-3 (indanyl-2 oxy)-1 propanol-2 maléate] | 10 | 100 (≈ 380 mM)
14 | CC(C)NCC(O)COC1CCCc2ccccc21 (stereo not shown) [Exemple 15, isopropylamino-3 (tétrahydro 1,2,3,4 naphtyloxy-1)-1 propanol-2 fumarate] | – | 30
15 | CC(C)(C)NCC(O)COC1CCCc2ccccc21 (stereo not shown) [Exemple 16, tertiobutylamino-3 (tétrahydro 1,2,3,4 naphtoxy-1)-1 pro^panol-2 maléate] | – | 20 (≈ 72.1 mM)
